Patent US8722065B2, “Lidocaine tape preparation” (priority 2007, dated 2014)

Assay: Crystal precipitability of lidocaine in the tape preparation / ionic liquid
Type: physicochemical
Conditions: room temperature for several months
Method: A content initially inducing the crystal precipitation of lidocaine was examined. […] The crystal precipitability and transdermal absorbability therefor were evaluated. Lidoderm (registered trade name, from Endo, lidocaine content: 5%) was used as a standard material. […]

**Q.** With CC(O)C(=O)O.CCN(CC)CC(=O)Nc1c(C)cccc1C [lactic acid salt of lidocaine] as the molecule, how does the “Crystal precipitation on storage” value read?
**A.** no crystal precipitation occurred
